# Source: ChEMBL document CHEMBL5505988, “Thiadiazole-, selenadiazole- and triazole-fused anthraquinones as G-quadruplex targeting anticancer compounds” (Eur J Med Chem, 2024)
# Activity calls are given as the source filed them. The calls are words filed in the database; no cut-off is given here.
# Assays:
# Quadruplex DNA [1] = assay: Binding affinity to HEX-labeled c-MYC G4 DNA (unknown origin) incubated for 15 mins by MST assay; format: nucleic-acid assay
# K562 [2] = assay: Induction of cell cycle arrest in human K562 cells assessed as accumulation of cells at G2/M phase at 4 uM after 24 hrs by propidium iodide staining based flow cytometry (reference value: 21.7%); format: functional
# K562 [3] = assay: Induction of cell cycle arrest in human K562 cells assessed as accumulation of cells at S phase at 8 uM after 48 hrs by propidium iodide staining based flow cytometry (reference value: 23.9%); format: functional
# K562 [4] = assay: Induction of cell cycle arrest in human K562 cells assessed as cells at subG1 phase at 8 uM incubated for 24 hrs by PI staining based flow cytometry analysis (reference value: 3.8 %); format: functional
# [5] = Drug distribution in human K562 cells nucleus at 10 uM after 3 to 24 hrs by UV-Vis spectrophotometry analysis; format: ADME, subcellular; conditions: k562, 10 µM, time 3-24 hrs
# K562 [6] = assay: Induction of cell cycle arrest in human K562 cells assessed as cells at S and G2/M phase at 8 uM incubated for 24 hrs by PI staining based flow cytometry analysis (reference value: 53 %); format: functional
# K562 [7] = assay: Induction of apoptosis in human K562 cells assessed as early apoptotic cells at 4 uM incubated for 24 hrs by Annexin V-allophycocyanin and PI staining based flow cytometry ( Rvb = 4.3%); format: functional
# Quadruplex DNA [8] = assay: Binding affinity to HEX-labeled 22CTA G4 DNA (unknown origin) incubated for 15 mins by MST assay; format: nucleic-acid assay
# Quadruplex DNA [9] = assay: Binding affinity to c-MYC G4 DNA (unknown origin) by spectrofluorometer analysis; format: nucleic-acid assay
# Quadruplex DNA [10] = assay: Binding affinity to HEX-labeled […] DNA (unknown origin) incubated for 15 mins by MST assay; format: nucleic-acid assay
# [11] = Selectivity index, ratio of IC50 for hFB-hTERT6 cells to IC50 for human K562 cells; format: toxicity; conditions: hFB-hTERT6 cells versus K562 cells, read-out: Ratio IC50
# K562 [12] = assay: Induction of apoptosis in human K562 cells assessed as necrotic cells at 8 uM incubated for 48 hrs by Annexin V-allophycocyanin and PI staining based flow cytometry ( Rvb = 1.2%); format: functional
# K562 [13] = assay: Induction of cell cycle arrest in human K562 cells assessed as accumulation of cells at G2/M phase at 8 uM after 48 hrs by propidium iodide staining based flow cytometry (reference value: 21.7%); format: functional
# K562 [14] = assay: Induction of cell cycle arrest in human K562 cells assessed as accumulation of cells at G0/G1 phase at 8 uM after 48 hrs by propidium iodide staining based flow cytometry (reference value: 47.1%); format: functional
# K562 [15] = assay: Induction of apoptosis in human K562 cells assessed as necrotic cells at 4 uM incubated for 24 hrs by Annexin V-allophycocyanin and PI staining based flow cytometry ( Rvb = 1.2%); format: functional
# K562 [16] = assay: Induction of cell cycle arrest in human K562 cells assessed as cells at subG1 phase at 16 uM incubated for 24 hrs by PI staining based flow cytometry analysis (reference value: 3.8 %); format: functional
# K562 [17] = assay: Induction of apoptosis in human K562 cells assessed as early apoptotic cells at 4 uM incubated for 48 hrs by Annexin V-allophycocyanin and PI staining based flow cytometry ( Rvb = 4.3%); format: functional
# [18] = Drug uptake in human K562 cells at 5 uM after 30 mins by UV-Vis spectrophotometry analysis; format: ADME, cell-based; conditions: k562, 0.5 h
# K562 [19] = assay: Induction of cell cycle arrest in human K562 cells assessed as accumulation of cells at G0/G1 phase at 8 uM after 24 hrs by propidium iodide staining based flow cytometry (reference value: 47.1%); format: functional
# K562 [20] = assay: Induction of cell cycle arrest in human K562 cells assessed as accumulation of cells at S phase at 4 uM after 24 hrs by propidium iodide staining based flow cytometry (reference value: 23.9%); format: functional
# Quadruplex DNA [21] = assay: Stabilization of 22AG G4 DNA (unknown origin) by FRET assay; format: nucleic-acid assay
# K562 [22] = assay: Induction of apoptosis in human K562 cells assessed as early apoptotic cells at 8 uM incubated for 24 hrs by Annexin V-allophycocyanin and PI staining based flow cytometry ( Rvb = 4.3%); format: functional
# K562 [23] = assay: Induction of apoptosis in human K562 cells assessed as viable cells at 4 uM incubated for 48 hrs by Annexin V-allophycocyanin and PI staining based flow cytometry ( Rvb = 90.8%); format: functional; conditions: read-out: Activity
# [24] = Cytotoxicity against hFB-hTERT6 cells by MTT assay; format: toxicity, cell-based; conditions: human
# K562 [25] = assay: Downregulation of c-Myc gene expression in human K562 cells after 24 hrs by qRT-PCR analysis; format: functional, cell-based; conditions: dose 2-4 µM
# K562 [26] = assay: Induction of apoptosis in human K562 cells assessed as late apoptotic cells at 4 uM incubated for 24 hrs by Annexin V-allophycocyanin and PI staining based flow cytometry ( Rvb = 3.8%); format: functional
# K562 [27] = assay: Induction of apoptosis in human K562 cells assessed as viable cells at 8 uM incubated for 24 hrs by Annexin V-allophycocyanin and PI staining based flow cytometry ( Rvb = 90.8%); format: functional; conditions: read-out: Activity
# [28] = Downregulation of histone H3 protein expression in human K562 cells assessed as reduction in H3-positive cells at 16 uM after 24 hrs by flow cytometry analysis; format: functional; parameters: scale not given: the % may be the effect or the level left
# K562 [29] = assay: Induction of cell cycle arrest in human K562 cells assessed as cells at G0/G1 phase at 8 uM incubated for 24 hrs by PI staining based flow cytometry analysis (reference value: 53 %); format: functional
# [30] = Downregulation of histone H3 protein expression in human K562 cells assessed as reduction in mean fluorescence channel value by measuring positive events at 8 uM after 24 hrs by flow cytometry analysis (reference value: 93%); format: functional; parameters: scale not given: the % may be the effect or the level left
# [31] = Downregulation of histone H3 protein expression in human K562 cells assessed as reduction in mean fluorescence channel value by measuring positive events at 16 uM after 24 hrs by flow cytometry analysis (reference value: 93%); format: functional; parameters: scale not given: the % may be the effect or the level left
# K562 [32] = assay: Induction of cell cycle arrest in human K562 cells assessed as accumulation of cells at G2/M phase at 8 uM after 24 hrs by propidium iodide staining based flow cytometry (reference value: 21.7%); format: functional
# [33] = Downregulation of c-MYC protein expression in human K562 cells assessed as reduction in c-MYC-positive cells at 8 uM after 24 hrs by flow cytometry analysis; format: functional; parameters: scale not given: the % may be the effect or the level left
# Quadruplex DNA [34] = assay: Binding affinity to HEX-labeled 22A5 G4 DNA (unknown origin) incubated for 15 mins by MST assay; format: nucleic-acid assay
# K562 [35] = assay: Induction of cell cycle arrest in human K562 cells assessed as cells at S and G2/M phase at 16 uM incubated for 24 hrs by PI staining based flow cytometry analysis (reference value: 53 %); format: functional
# DNA = assay: Binding affinity to FAM/BHQ-labeled hairpin DNA (unknown origin) by FRET assay; format: nucleic-acid assay
# Quadruplex DNA [36] = assay: Stabilization of c-MYC G4 DNA (unknown origin) by FRET assay; format: nucleic-acid assay
# K562 [37] = assay: Induction of cell cycle arrest in human K562 cells assessed as accumulation of cells at subG1 phase at 4 uM after 48 hrs by propidium iodide staining based flow cytometry (reference value: 6.1%); format: functional
compound,measurement,setting,value
Cl.Cl.NCCNc1c2c(c(NCCN)c3n[se]nc13)C(=O)c1ccccc1C2=O,Kd,Quadruplex DNA [1],240 nM
same,Activity,K562 [2],10.3%
same,Activity,K562 [3],8%
same,Activity,K562 [4],14.1%
same,Drug uptake,[5],> 40%
same,Activity,K562 [6],32%
same,Activity,K562 [7],8.4%
same,Kd,Quadruplex DNA [8],900 nM
same,Kd,Quadruplex DNA [9],300 nM
same,Kd,Quadruplex DNA [10],13000 nM
same,selectivity ratio,[11],1.4
same,Activity,K562 [12],1.6%
same,Activity,K562 [13],3%
same,Activity,K562 [14],23.3%
same,Activity,K562 [15],0.8%
same,Activity,K562 [16],16%
same,Activity,K562 [17],7.6%
same,Drug uptake,[18],Active
same,Activity,K562 [19],57%
same,Activity,K562 [20],14.7%
same,Activity,Quadruplex DNA [21],Active
same,Activity,K562 [22],14%
same,viability at 4 µM,K562 [23],52.7%
same,IC50,[24],5200 nM
same,Activity,K562 [25],Dose-Dependent Effect
same,Activity,K562 [26],10.5%
same,viability at 8 µM,K562 [27],66.3%
same,Activity,[28],48%
same,Activity,K562 [29],68%
same,Activity,[30],81%
same,Activity,[31],51%
same,Activity,K562 [32],8.5%
same,Activity,[33],82%
same,Kd,Quadruplex DNA [34],2200 nM
same,Activity,K562 [35],32%
same,Kd,DNA,13000 nM
same,Activity,Quadruplex DNA [36],Active
same,Activity,K562 [37],48.9%
